Entries after “also recorded” stand apart in the source; their conditions may differ.
What was measured:
[1] = target: SHP2 (D2C) (Homo sapiens (Human), UniProt Q06124); experiment: SHP2 (D2C) pNPP inhibition assay, hits of library 7′a-c; assay type: biochemical; details: for IC50: pNPP substrate, pH 7, 25° C., library 7′a / 7′c hits
Description: These three libraries were further screened at 10 μM for SHP2. […] Three pairs of hits bearing the same amine scaffold from library 7′a and 7′c were resynthesized and purified by HPLC. […] (Table 1).
In this Example, SHP2 (D2C) was used to transform into E. coli BL21/DE3 and grown in LB medium containing 50 μg/ml kanamycin at 37° C. to an OD600 of 0.4. Following the addition of IPTG to a final concentration of 20 μM, the culture was incubated at 20° C. with shaking for an additional 16 hours. The cells were harvested by centrifugation at 5000 rpm for 5 minutes at 4° C. The bacterial cell pellets were resuspended in 20 mM Tris, pH 7.9, 500 mM NaCl, 5 mM imidazole, and were lysed by passage through a French press cell at 1,200 psi twice. Cellular debris was removed by centrifugation at 16,000 rpm for 30 minutes at 4° C. The protein was purified from the supernatant using standard procedures of Ni-nitrilotriacetic acid-agarose (Qiagen) affinity purification. The protein eluted from Ni-NTA column was concentrated with an Amicon Ultra centrifugal filter device (Millipore) and the buffer was changed to 20 mM Tris, pH 7.5, 150 mM NaCl, 1 mM EDTA and 1 mM DTT. Protein concentration was determined using the Bradford dye binding assay (Bio-Rad) diluted according to the manufacturer's recommendations with bovine serum albumin as standard. The purified SHP 2 (D2C) were made to 30% glycerol and stored at −20° C.
Inhibition Study: The inhibition assays were performed at 25° C. in 50 mM 3,3-dimethylglutarate buffer, pH 7.0, containing 1 mM EDTA with an ionic strength of 0.15M adjusted by NaCl. The salicylic acid based library was screened in a 96-well format at 10 μM compound concentration. […] The reaction was quenched after 10 minutes by the addition of 50 μl of 5N NaOH, and then this reaction mixture was detected for absorbance at 405 nm by a Spectra MAX340 microplate spectrophotometer (Molecular Devices). IC50 values were calculated by fitting the absorbance at 405 nm versus inhibitor concentration to the following equation: AI/A0=IC50/(IC50+[I]) where AI is the absorbance at 405 nm of the sample in the presence of inhibitor; A0 is the absorbance at 405 nm in the absence of inhibitor; and [I] is the concentration of the inhibitor.

[2] = target: SHP2 (Homo sapiens (Human), UniProt Q06124); experiment: SHP2-catalyzed hydrolysis of p-nitrophenyl phosphate (pNPP); assay type: biochemical; details: pNPP substrate, pH 7.0, 25° C.
Description: Libraries 11a-d were screened at ˜5 μM for SHP2 inhibitors without further purification. The ability of the library components to inhibit the SHP2-catalyzed hydrolysis of p-nitrophenyl phosphate (pNPP) was evaluated at pH 7.0 and 25° C. More particularly, the phosphatase activity of SHP2 was assayed using p-nitrophenyl phosphate (pNPP) as a substrate at 25° C. in 50 mM 3,3-dimethylglutarate buffer, pH 7.0, containing 1 mM EDTA with an ionic strength of […] adjusted by NaCl. The libraries were screened in a 96-well format at 5 μM compound concentration. […] The nonenzymatic hydrolysis of pNPP was corrected by measuring the control without the addition of enzyme. The amount of product p-nitrophenol was determined from the absorbance at 405 nm detected by a Spectra MAX340 microplate spectrophotometer (Molecular Devices, Sunnyvale, Calif.) using a molar extinction coefficient of 18,000 M^−1 cm^−1. […] IC50 values for selected resynthesized and purified hits were calculated by fitting the absorbance at 405 nm versus inhibitor concentration to the following equation: AI/A0=IC50/(IC50+[I]) where AI is the absorbance at 405 nm of the sample in the presence of the inhibitor; A0 is the absorbance at 405 nm in the absence of inhibitor; and [I] is the concentration of the inhibitor.

[3] = system: EGF-induced Erk1/2 phosphorylation; experiment: EGF-induced Erk1/2 phosphorylation in H1975 cells (immunoblot); assay type: cell-based, human; details: H1975 cells, 2 μM
Description: (§1) For biochemical studies, H1975 cells were serum-starved overnight followed by treatment with vehicle or compound 11a-1 for 3 hours, and then either left unstimulated or stimulated with 5 ng/ml EGF (Sigma, St. Louis, Mo.) for 60 minutes. Lysates were then resolved by SDS-PAGE and the protein phosphorylation levels were detected by immunoblot analysis. Specifically, cells were lysed in lysis buffer (1.0% Nonidet P-40, 50 mM Tris-HCl (pH 7.4), 150 mM NaCl, 5 mM EDTA, 2 mM NaVO3, 10 mM NaF) plus a protease inhibitor mixture available from Roche (Basel, Switzerland) and centrifuged at 10,000 rpm for 5 minutes at 4° C. Supernatants were collected and protein concentration was determined using the BCA protein assay (ThermoFisher Scientific, Rockford, Ill.). Equal amount of protein extracts were mixed with gel loading buffer and separated on SDS-PAGE. After electrophoresis, the proteins were transferred onto nitrocellulose membranes and nonspecific binding was blocked with 5% nonfat dry milk in Tris-buffered saline containing 0.1% Tween-20 (TBS-T). Membranes were then probed with various antibodies overnight at 4° C. on a rocker. After incubation, membranes were washed with TBS-T and incubated with appropriate horseradish peroxidase (HRP)-conjugated secondary antibodies for 1 hour at room temperature. Finally, the proteins on the membranes were detected using SuperSignal West Dura Luminol/Enhancer solution (ThermoFisher Scientific, Rockford, Ill.) and membranes were analyzed using Bio-Rad ChemiDoc XRS Imaging System.

[4] = system: Paxillin (pY118); experiment: Paxillin (pY118) phosphorylation in H1975 cells (immunoblot); assay type: cell-based, human; details: 2 μM
Description: as §1

SHP2 (D2C), sequence (Q06124 240-528): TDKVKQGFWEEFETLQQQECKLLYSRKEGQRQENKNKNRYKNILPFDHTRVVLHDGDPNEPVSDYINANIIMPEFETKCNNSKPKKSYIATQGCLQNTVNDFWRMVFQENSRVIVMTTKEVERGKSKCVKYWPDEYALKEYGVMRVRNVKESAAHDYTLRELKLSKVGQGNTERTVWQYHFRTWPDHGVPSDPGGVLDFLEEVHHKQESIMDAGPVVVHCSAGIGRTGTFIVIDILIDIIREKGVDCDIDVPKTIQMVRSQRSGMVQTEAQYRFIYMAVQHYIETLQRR

IC50 [1]	IC50 [2]	SMILES	further results
> 20 µM	–	Cn1c(CCCC(=O)O)c(I)c2cc(C(=O)O)c(O)cc21 [7′a, 2-(3-carboxypropyl)-6-hydroxy-3-iodo-1-methyl-1H-indole-5-carboxylic acid]	–
5 ± 0.3 µM	–	Cn1c(CCCC(=O)Nc2cccc(OCc3ccccc3)c2)c(I)c2cc(C(=O)O)c(O)cc21 [7′a-1, 2-(4-((3-(benzyloxy)phenyl)amino)-4-oxobutyl)-6-hydroxy-3-iodo-1-methyl-1H-indole-5-carboxylic acid]	–
12.6 ± 2.8 µM	–	Cn1c(CCCC(=O)NCc2ccc3c(c2)OCO3)c(I)c2cc(C(=O)O)c(O)cc21 [7′a-2, 2-(4-((benzo[d][1,3]dioxol-5-ylmethyl)amino)-4-oxobutyl)-6-hydroxy-3-iodo-1-methyl-1H-indole-5-carboxylic acid]	–
> 20 µM	–	Cn1c(CCCC(=O)Nc2ccc(OCc3ccccc3)c(Cl)c2)c(I)c2cc(C(=O)O)c(O)cc21 [7′a-3, 2-(4-((4-(benzyloxy)-3-chlorophenyl)amino)-4-oxobutyl)-6-hydroxy-3-iodo-1-methyl-1H-indole-5-carboxylic acid]	–
9.2 ± 0.5 µM	–	Cn1c(-c2ccc(C(=O)O)cc2)c(I)c2cc(C(=O)O)c(O)cc21 [7′c, 2-(4-carboxyphenyl)-6-hydroxy-3-iodo-1-methyl-1H-indole-5-carboxylic acid]	–
2.4 ± 0.1 µM	–	Cn1c(-c2ccc(C(=O)Nc3cccc(OCc4ccccc4)c3)cc2)c(I)c2cc(C(=O)O)c(O)cc21 [7′c-1, 2-(4-((3-(benzyloxy)phenyl)carbamoyl)phenyl)-6-hydroxy-3-iodo-1-methyl-1H-indole-5-carboxylic acid]	–
1.6 µM	–	Cn1c(-c2ccc(C(=O)Nc3ccc(OCc4ccccc4)c(Cl)c3)cc2)c(I)c2cc(C(=O)O)c(O)cc21 [7′c-3, 2-(4-((4-(benzyloxy)-3-chlorophenyl)carbamoyl)phenyl)-6-hydroxy-3-iodo-1-methyl-1H-indole-5-carboxylic acid]	potency for SHP2 relative to 7′a-3 [1]: 12 fold
–	14.4 µM	Cn1c(-c2cccc(NC(=O)C(=O)O)c2)c(I)c2cc(C(=O)O)c(O)cc21 [10a, 2-(3-(carboxyformamido)phenyl)-6-hydroxy-3-iodo-1-methyl-1H-indole-5-carboxylic acid]	effect on Erk1/2 phosphorylation (SHP2 dependent signaling), in words [3]: no effect; also recorded: failed to block; effect on Paxillin phosphorylation, in words [4]: no effect
–	4.5 ± 1.4 µM	Cn1c(-c2cccc(NC(=O)CCC(=O)Nc3cccc(OCc4ccccc4)c3)c2)c(I)c2cc(C(=O)O)c(O)cc21 [11c-4, 2-(3-(4-((3-(benzyloxy)phenyl)amino)-4-oxobutanamido)phenyl)-6-hydroxy-3-iodo-1-methyl-1H-indole-5-carboxylic acid]	–
–	7.2 ± 0.9 µM	Cn1c(-c2cccc(NC(=O)CCC(=O)N3CCc4cc(Br)ccc43)c2)c(I)c2cc(C(=O)O)c(O)cc21 [11c-6, 2-(3-(4-(5-bromoindolin-1-yl)-4-oxobutanamido)phenyl)-6-hydroxy-3-iodo-1-methyl-1H-indole-5-carboxylic acid]	–
–	8.6 ± 2.3 µM	Cn1c(-c2cccc(NC(=O)CCC(=O)Nc3ccc(OC(F)(F)F)cc3)c2)c(I)c2cc(C(=O)O)c(O)cc21 [11c-7, 6-hydroxy-3-iodo-1-methyl-2-(3-(4-oxo-4-((4-(trifluoromethoxy)phenyl)amino)butanamido)phenyl)-1H-indole-5-carboxylic acid]	–
–	10.7 ± 2.4 µM	CC(C)c1ccc(NC(=O)CCC(=O)Nc2cccc(-c3c(I)c4cc(C(=O)O)c(O)cc4n3C)c2)cc1 [11c-8, 6-hydroxy-3-iodo-2-(3-(4-((4-isopropylphenyl)amino)-4-oxobutanamido)phenyl)-1-methyl-1H-indole-5-carboxylic acid]	–
–	14 ± 1 µM	Cn1c(-c2cccc(NC(=O)CCC(=O)NCc3ccc4c(c3)OCO4)c2)c(I)c2cc(C(=O)O)c(O)cc21 [11c-9, 2-(3-(4-((benzo[d][1,3]dioxol-5-ylmethyl)amino)-4-oxobutanamido)phenyl)-6-hydroxy-3-iodo-1-methyl-1H-indole-5-carboxylic acid]	–
–	> 20 µM	CCCN(CC1CC1)C(=O)CCC(=O)Nc1cccc(-c2c(I)c3cc(C(=O)O)c(O)cc3n2C)c1 [11c-10, 2-(3-(4-((cyclopropylmethyl)(propyl)amino)-4-oxobutanamido)phenyl)-6-hydroxy-3-iodo-1-methyl-1H-indole-5-carboxylic acid]	–
–	26 ± 5 µM	Cn1c(-c2cccc(NC(=O)CCC(=O)Nc3nccs3)c2)c(I)c2cc(C(=O)O)c(O)cc21 [11c-11, 6-hydroxy-3-iodo-1-methyl-2-(3-(4-oxo-4-(thiazol-2-ylamino)butanamido)phenyl)-1H-indole-5-carboxylic acid]	–

SMILES	IC50 [1]	IC50 [2]	further results
Cn1c(-c2cccc(NC(=O)CCC(=O)Nc3cccc(-c4ccccc4)c3)c2)c(I)c2cc(C(=O)O)c(O)cc21 [11c-5, 2-(3-(4-([1,1′-biphenyl]-3-ylamino)-4-oxobutanamido)phenyl)-6-hydroxy-3-iodo-1-methyl-1H-indole-5-carboxylic acid]	–	5.3 ± 0.9 µM	–
